In patent US20150079156A1, “LIPOSOMAL DELIVERY SYSTEM” (THE QUEEN'S UNIVERSITY OF BELFAST, priority 2012, published 2015):

Assays:
[1] = test system: human lung epithelial cell line L-132; assay: Cell uptake of CF-loaded liposomal formulations (fluorometry, flow cytometry, CLSM); type: cell-based; conditions: L-132 cells, 0.5-2 h at 37° C., 1:100 dilution
Procedure: Cells from the human lung epithelial cell line L-132 were cultured in MEM medium containing Earle's salts and L-glutamine and supplemented with 10% fetal calf serum (FCS), under standard conditions at 37° C. with 5% CO2 and 95% air. To validate the fluorimetric analysis, a standard curve was created during each assay. To perform the fluorometric assay cells were seeded at 25×10^4 cells/well onto 24-well plates (total volume was 1 ml/well). Twenty four hours later, the culture medium was removed. The formulations were added to the cells in 1:100 dilution in MEM medium (10 μl of liposomes suspension+990 μl medium) and incubated for 0.5-2 h at 37° C. Following incubation cells were washed two times with cold PBS to end the uptake experiment. Then the washed cells were lysed with 0.2% Triton X-100 in 0.2 N NaOH (1.0 ml/well) for 0.5-1 hour at room temperature. Aliquots from each well were transferred into 96-well plates. The cell fluorescence intensity was determined using a microplate fluorometer at an excitation wavelength of 485 nm and emission wavelength of 520 nm and Gain level set to 800 in the software (FIG. 4). […] The cells were kept on ice and analysized by flow cytometry using a FACscan flow cytometer for cell-associated CF fluorescence. The mean fluorescence intensity of cells was determined for each sample (FIG. 5). […]

[2] = Nasal tissue penetration, Franz type permeation cell, CLSM; type: in vitro ADME, bovine; conditions: CF loaded, 1 hour incubation, 37° C.
Procedure: To investigate the ability of the TPGS:DDA:SPC liposomes of Example 1 to cross nasal mucosa and penetrate into bovine nasal tissue fresh bovine nasal tissues were collected from freshly slaughtered animals. The mucosal tissue was removed and preserved in Krebs Bicarbonate Ringer (KBR) buffer pH 7.4. Liposome penetration studies were performed immediately to maintain the viability of the cells tissue being used. A Franz type permeation cell was used in this study; the recipient compartment filled with KBR buffer and stirred constantly. The temperature of the Franz cell was maintained at 37° C. with jacketed water flow. A 1.5 cm^2 tissue section was inserted between the recipient and donor compartments and 0.5 ml of reconstituted liposomal dispersion or free carboxyfluorescein (CF) solutions containing an equivalent amount of CF were loaded into the donor compartment, and left for 1 hour incubation. The tissues were then washed with KBR buffer and frozen in optimal cutting temperature compound at −80° C. for cryosection. Samples of 10 μm thickness were obtained using a cryostat (MICROM HM 550). Propidium iodide (PI) solution was used to stain the cell nuclei and cryosectioned tissues were mounted in glycerol containing 1,4-phenylenediamine (0.1 g/l). Penetration was observed using confocal laser scanning microscopy (CLSM). […]

[3] = In vitro release of BSA from liposomes, dialysis method; type: physicochemical; conditions: free BSA, 4 h, 37° C., PBS pH 7.4
Procedure: in vitro release experiments of BSA from liposomes were performed at 37°±0.5° C. using the dialysis method under constant shaking (60 rpm). A 10 ml of phosphat buffered saline (PBS) pH 7.4 was used to test for the drug release for 48 h. Dialysis bags (Spectra/Por Biotech Cellulose Ester Dialysis Membrane MWCO: 300,000 Spectrum Ls Rancho Dominguez, Calif., USA) containing 500 μl liposomes were introduced into the system. All of the release media was withdrawn and replaced with the same volume of fresh medium at designated time points to maintain sink conditions. The sampled medium (1.0 ml out of 10 ml) was mixed with Bradford's reagent and the absorbance was measured as described in the method for determination of encapsulation efficiency. The concentration of the BSA released from the liposomes was calculated from the obtained linear calibration curve (r≧0.99) as previously described in the method for determination of encapsulation efficiency.

Substance	amount of CF incorporated into cells [1]	penetration into bovine nasal tissue (CLSM) [2]	cumulative release of BSA [3] [%]
carboxyfluorescein [free CF]	free CF<CF-loaded SPC liposomes <CF-loaded TPGS:DDA:SPC liposomes	completely washed out	–
bovine serum albumin [free BSA]	–	–	46.6±2.6
